Assays:
BCL-xL = BCL-xL (Homo sapiens, UniProt Q07817); assay: BCL-binding assay (AlphaLISA competition, BAD peptide); conditions: 6xHis BCL-xL with biotinylated BAD peptide, 24 hr incubation
Experimental: (§1) Compounds were prepared as 400× DMSO stock solutions in a 1:4 dilution series then diluted […] in assay buffer (25 mM HEPES pH 7.5, 100 mM NaCl, 0.1% BSA, 0.005% Tween) immediately before use. Aliquots of 400 nM 6xHis-tagged BCL-xL, BCL-2, and BCL-w were thawed on ice and diluted to 0.4 (BCL-XL) or 0.8 (BCL-W and 2) nM in assay buffer. Aliquots of biotinylated BIM and BAD peptides were diluted in assay buffer to 120 and 60 nM respectively. Ten microliters of biotinylated peptide were added to wells of a 96-well PCR plate, followed by ten microliters of inhibitor, then ten microliters of BCL protein, BCL-XL with BAD and BCL-W/2 with BIM. The plates were sealed and incubated at room temperature. After 24 hr, 0.16 μg Anti-His conjugated AlphaLISA acceptor beads were added in 5 μL assay buffer. After one hour at room temperature, 0.16 μg AlphaScreen streptavidin donor beads were added in 5 μL assay buffer and plates were incubated an additional 30 min in the dark. Two 17 μL aliquots of each reaction were plated in a Perkin Elmer 384-well proxiplate, and plates were scanned for using a Perkin Elmer Enspire plate reader. Kd values were calculated in Prism Graph Pad using a one site competitive binding model and previously determined Kd values for each protein peptide pair. […]

BCL-2 = BCL-2 (Homo sapiens, UniProt P10415); assay: BCL-binding assay (AlphaLISA competition, BIM peptide); conditions: 6xHis BCL-2 with biotinylated BIM peptide, 24 hr incubation
Chain of BCL-2 (P10415 whole entry, species assumed): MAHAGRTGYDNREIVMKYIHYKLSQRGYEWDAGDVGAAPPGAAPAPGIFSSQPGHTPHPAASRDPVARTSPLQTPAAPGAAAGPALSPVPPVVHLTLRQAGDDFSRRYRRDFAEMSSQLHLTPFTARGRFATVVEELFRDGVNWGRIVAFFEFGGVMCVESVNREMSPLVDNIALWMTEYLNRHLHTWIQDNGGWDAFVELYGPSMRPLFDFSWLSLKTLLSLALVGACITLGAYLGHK
Experimental: as §1

BCL-w = target: T1, BCL-w (Homo sapiens, UniProt Q92843); assay: as above; conditions: 6xHis BCL-w with biotinylated BIM peptide, 24 hr incubation
T1 sequence (Q92843 1-193): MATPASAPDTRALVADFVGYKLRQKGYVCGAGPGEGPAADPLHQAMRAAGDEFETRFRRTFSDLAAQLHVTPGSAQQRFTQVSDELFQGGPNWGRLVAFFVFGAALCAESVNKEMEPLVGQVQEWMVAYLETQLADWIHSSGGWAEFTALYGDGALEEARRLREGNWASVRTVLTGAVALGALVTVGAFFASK
Experimental: as §1

[1] = test system: IMR-90 SnC (irradiated senescent IMR90 cells); assay: Senolysis assay (CellTiter-Glo viability); type: cell-based, human; conditions: for EC50: Homo sapiens, IMR-90, light or radiation study, 72 h, X-ray irradiated senescent IMR90 cells, viability three days after compound addition; for SI (ratio of EC50 of non-senescent cells to EC50 of senescent cells): IMR90 non-senescent vs senescent cells
Experimental: IMR90 cells are maintained in DMEM supplemented with 10% FBS. To prepare a senescent population, cells were trypsinized, diluted to 50,000 per mL, and irradiated with 10-15 Gy of X-ray irradiation. Irradiated cells were plated at 5000 cells per well in one third of a 96-well plate and maintained for two weeks prior to the assay. Four days prior to the assay, non-senescent IMR90s were plated at 2500 per well in the second third of the plate. One day prior to the assay, 2500 non-senescent cells were plated in the final third of the plate. Compounds were prepared as a 200×DMSO dilution series then diluted to 1× in media immediately before adding to cells. Three days after compound addition, cell viability was measured using CellTiter-Glo reagent from Promega. Viability was calculated relative to a DMSO control and EC50 values are calculated in Prism GraphPad. […] The selectivity (SI) of the compounds described herein is a ratio of the EC50 of non-senescent cells to the EC50 of senescent cells. The SI of the compounds described herein is 10 or above for “A” selectivity, between 2 and 10 for “B” selectivity or 2 or less for “C” selectivity.

Chain of BCL-xL (Q07817 whole entry, species assumed): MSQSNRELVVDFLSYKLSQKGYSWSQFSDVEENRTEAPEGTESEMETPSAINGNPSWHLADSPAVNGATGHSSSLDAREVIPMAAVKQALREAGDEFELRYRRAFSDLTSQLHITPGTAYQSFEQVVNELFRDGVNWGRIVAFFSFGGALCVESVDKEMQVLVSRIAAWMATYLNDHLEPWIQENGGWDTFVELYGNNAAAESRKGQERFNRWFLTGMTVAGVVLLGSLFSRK

SMILES	Kd (BCL-xL)	Kd (BCL-2)	Kd (BCL-w)	EC50 [1]	SI (ratio of EC50 of non-senescent cells to EC50 of senescent cells) [1]
CCOP(=O)(CN1CCN(CC[C@H](CSc2ccccc2)Nc2ccc(S(=O)(=O)NC(=O)c3ccc(N4CCN(CC5=C(c6ccc(Cl)cc6)CCC(C)(C)C5)CC4)cc3)cc2S(=O)(=O)C(F)(F)F)CC1)OCC [Compound 6]	< 1 nM	< 1 nM	1 to 10 nM	< 1000 nM	A (10 or above)
CC1(C)CCC(c2ccc(Cl)cc2)=C(CN2CCN(c3ccc(C(=O)NS(=O)(=O)c4ccc(N[C@H](CCN5CCN(CP(=O)(O)O)CC5)CSc5ccccc5)c(S(=O)(=O)C(F)(F)F)c4)cc3)CC2)C1 [Compound 7]	< 1 nM	< 1 nM	10 to 50 nM	> 10000 nM	B (between 2 and 10)
CCOP(=O)(CCN1CCN(CC[C@H](CSc2ccccc2)Nc2ccc(S(=O)(=O)NC(=O)c3ccc(N4CCN(CC5=C(c6ccc(Cl)cc6)CCC(C)(C)C5)CC4)cc3)cc2S(=O)(=O)C(F)(F)F)CC1)OCC [Compound 9]	< 1 nM	< 1 nM	1 to 10 nM	< 1000 nM	A (10 or above)
CCOP(=O)(CCN(C)CC[C@H](CSc1ccccc1)Nc1ccc(S(=O)(=O)NC(=O)c2ccc(N3CCN(CC4=C(c5ccc(Cl)cc5)CCC(C)(C)C4)CC3)cc2)cc1S(=O)(=O)C(F)(F)F)OCC [Compound 10]	< 1 nM	< 1 nM	1 to 10 nM	1000 to 10000 nM	A (10 or above)
CCOP(=O)(O)CCN(C)CC[C@H](CSc1ccccc1)Nc1ccc(S(=O)(=O)NC(=O)c2ccc(N3CCN(CC4=C(c5ccc(Cl)cc5)CCC(C)(C)C4)CC3)cc2)cc1S(=O)(=O)C(F)(F)F [Compound 11]	< 1 nM	< 1 nM	1 to 10 nM	> 10000 nM	C (2 or less)
CN(CC[C@H](CSc1ccccc1)Nc1ccc(S(=O)(=O)NC(=O)c2ccc(N3CCN(CC4=C(c5ccc(Cl)cc5)CCC(C)(C)C4)CC3)cc2)cc1S(=O)(=O)C(F)(F)F)CCP(=O)(O)O [Compound 12]	< 1 nM	< 1 nM	10 to 50 nM	> 10000 nM	
CC1(C)CCC(c2ccc(Cl)cc2)=C(CN2CCN(c3ccc(C(=O)NS(=O)(=O)c4ccc(N[C@H](CCN5CCN(CCP(=O)(O)O)CC5)CSc5ccccc5)c(S(=O)(=O)C(F)(F)F)c4)cc3)CC2)C1 [Compound 13]	< 1 nM	< 1 nM	1 to 10 nM	> 10000 nM	
CCOP(=O)(O)CCN1CCN(CC[C@H](CSc2ccccc2)Nc2ccc(S(=O)(=O)NC(=O)c3ccc(N4CCN(CC5=C(c6ccc(Cl)cc6)CCC(C)(C)C5)CC4)cc3)cc2S(=O)(=O)C(F)(F)F)CC1 [Compound 14]	< 1 nM	< 1 nM	1 to 10 nM	> 10000 nM	
CC(C)OP(=O)(CN1CCN(CC[C@H](CSc2ccccc2)Nc2ccc(S(=O)(=O)NC(=O)c3ccc(N4CCN(CC5=C(c6ccc(Cl)cc6)CCC(C)(C)C5)CC4)cc3)cc2S(=O)(=O)C(F)(F)F)CC1)OC(C)C [Compound 15]	< 1 nM	< 1 nM	10 to 50 nM	1000 to 10000 nM	B (between 2 and 10)
COP(=O)(CN1CCN(CC[C@H](CSc2ccccc2)Nc2ccc(S(=O)(=O)NC(=O)c3ccc(N4CCN(CC5=C(c6ccc(Cl)cc6)CCC(C)(C)C5)CC4)cc3)cc2S(=O)(=O)C(F)(F)F)CC1)OC [Compound 16]	< 1 nM	< 1 nM	1 to 10 nM	< 1000 nM	A (10 or above)
CCOP(=O)(CCCN1CCN(CC[C@H](CSc2ccccc2)Nc2ccc(S(=O)(=O)NC(=O)c3ccc(N4CCN(CC5=C(c6ccc(Cl)cc6)CCC(C)(C)C5)CC4)cc3)cc2S(=O)(=O)C(F)(F)F)CC1)OCC [Compound 23]	< 1 nM	< 1 nM	1 to 10 nM	< 1000 nM	A (10 or above)
COP(=O)(CCCN1CCN(CC[C@H](CSc2ccccc2)Nc2ccc(S(=O)(=O)NC(=O)c3ccc(N4CCN(CC5=C(c6ccc(Cl)cc6)CCC(C)(C)C5)CC4)cc3)cc2S(=O)(=O)C(F)(F)F)CC1)OC [Compound 24]	< 1 nM	< 1 nM	1 to 10 nM	< 1000 nM	A (10 or above)
CC1(C)CCC(c2ccc(Cl)cc2)=C(CN2CCN(c3ccc(C(=O)NS(=O)(=O)c4ccc(N[C@H](CCN5CCN(CCCP(=O)(Oc6ccccc6)Oc6ccccc6)CC5)CSc5ccccc5)c(S(=O)(=O)C(F)(F)F)c4)cc3)CC2)C1 [Compound 25]	1 to 10 nM	< 1 nM	> 50 nM	> 10000 nM	C (2 or less)
CCOP(=O)(CN1CCN(CC[C@H](CSc2ccccc2)Nc2ccc(S(=O)(=O)NC(=O)c3ccc(N4CCN(CC5=C(c6ccc(Cl)cc6)CCC(C)(C)C5)CC4)cc3)cc2S(=O)(=O)C(F)(F)F)CC1)OC(C)(C)C (stereo partly shown) [Compound 26]	10 to 50 nM	> 50 nM	> 50 nM	> 10000 nM	
CC(C)OP(=O)(CCCN1CCN(CC[C@H](CSc2ccccc2)Nc2ccc(S(=O)(=O)NC(=O)c3ccc(N4CCN(CC5=C(c6ccc(Cl)cc6)CCC(C)(C)C5)CC4)cc3)cc2S(=O)(=O)C(F)(F)F)CC1)OC(C)C [Compound 27]	< 1 nM	< 1 nM	1 to 10 nM	> 10000 nM	C (2 or less)
CCOP(=O)(CN1CCN(CC[C@H](CSc2ccccc2)Nc2ccc(S(=O)(=O)NC(=O)c3ccc(N4CCN(CC5=C(c6ccc(Cl)cc6)CCC(C)(C)C5)CC4)cc3)cc2S(=O)(=O)C(F)(F)F)CC1)OCOC(=O)C(C)(C)C (stereo partly drawn) [Compound 28, (((4-((R)-3-((4-(N-(4-(4-((4′-Chloro-4,4-dimethyl-3,4,5,6-tetrahydro-[1,1′-biphenyl]-2-yl)methyl)piperazin-1-yl)benzoyl)sulfamoyl)-2-((trifluoromethyl)sulfonyl)phenyl)amino)-4-(phenylthio)butyl)piperazin-1-yl)methyl)(ethoxy)phosphoryl)oxy)methyl pivalate]	1 to 10 nM	< 1 nM	10 to 50 nM	< 1000 nM	B (between 2 and 10)
CCOP(=O)(CN1CCN(CC[C@H](CSc2ccccc2)N(c2ccc(S(=O)(=O)NC(=O)c3ccc(N4CCN(CC5=C(c6ccc(Cl)cc6)CCC(C)(C)C5)CC4)cc3)cc2S(=O)(=O)C(F)(F)F)S(C)(=O)=O)CC1)OCC [Compound 29]	10 to 50 nM	10 to 50 nM	> 50 nM	1000 to 10000 nM	C (2 or less)
CCOP(=O)(O)CN1CCN(CC[C@H](CSc2ccccc2)N(c2ccc(S(=O)(=O)NC(=O)c3ccc(N4CCN(CC5=C(c6ccc(Cl)cc6)CCC(C)(C)C5)CC4)cc3)cc2S(=O)(=O)C(F)(F)F)S(C)(=O)=O)CC1 [Compound 30]	1 to 10 nM	1 to 10 nM	> 50 nM	1000 to 10000 nM	
CCOP(=O)(O)CC1CCN(CC[C@H](CSc2ccccc2)Nc2ccc(S(=O)(=O)NC(=O)c3ccc(N4CCN(CC5=C(c6ccc(Cl)cc6)CCC(C)(C)C5)CC4)cc3)cc2S(=O)(=O)C(F)(F)F)CC1 [Compound 49, Ethylhydrogen((1-((R)-3-((4-(N-(4-(4-((4′-chloro-4,4-dimethyl-3,4,5,6-tetrahydro-[1,1′-biphenyl]-2-yl)methyl)piperazin-1-yl)benzoyl)sulfamoyl)-2-((trifluoromethyl)sulfonyl)phenyl)amino)-4-(phenylthio)butyl)piperidin-4-yl)methyl)phosphonate]	< 1 nM	< 1 nM	1 to 10 nM		

From patent US11111259B2, “Acylsulfonamide derivatives for treating senescence-associated diseases and disorders” (Unity Biotechnology, Inc., priority 2015, dated 2021)
